In the experiment the target is T1, MMP-8 (Homo sapiens, UniProt P22894).
T1 construct: catalytic domain (Met80-Gly242) of human neutrophil collagenase; made in house
The experiment can be described thus: Inhibition of MMPs (HNC catalytic domain), fluorogenic heptapeptide substrate DNP-Pro-Leu-Gly-Leu-Trp-Ala-D-Arg-NH2. Format: biochemical. The protocol: In order to determine the inhibition of MMPs, for example HNC, the catalytic domain (isolation and purification see for example Schnierer, S., Kleine, T., Gote, T., Hillemann, A., Knäuper, V., Tschesche, H., Biochem. Biophys. Res. Commun. (1993) 191, 319-326) is incubated with inhibitors having various concentrations. Subsequently, the initial reaction rate in the conversion of a standard substrate is measured in a manner analogous to Grams F. et al., FEBS 335 (1993) 76-80).
The results are evaluated by plotting the reciprocal reaction rate against the concentration of the inhibitor. The inhibition constant (Ki) is obtained as the negative section of the abscissis by the graphical method according to Dixon, M., Biochem. J. (1953) 55, 170-202.
The synthetic collagenase substrate is a heptapeptide which is coupled, at the […], with DNP (dinitrophenol). Said DNP residue quenches by steric hindrance the fluorescence of the adjacent tryptophane of the heptapeptide. After cleavage of a tripeptide which includes the DNP group, the tryptophane fluorescence increases. The proteolytic cleavage of the substrate therefore can be measured by the fluorescence value.
The assay was performed at 25° C. in a freshly prepared 50 mM Tris buffer (pH 8.0) treated with dithiozone to remove traces of heavy metals. 4 mM CaCl2 was added and the buffer saturated wtih argon. Stock solutions of adamalysin II were prepared by centrifugation of the protein from an ammonium sulfate suspension and subsequent dissolution in the assay buffer. Stock solutions of collagenase were diluted with the assay buffer. Enzyme concentrations were determined by uv measurements (ε280=2.8 10^4 M1 cm^−1, ε288: 2.2 10^4 M^−1 cm^−1) and the stock solutions were stored in the cold. This solution was diluted 1:100 to obtain the final 16 nM assay concentration. The fluorogenic substrate DNP-ProLeu-Gly-LeuTrp-Ala-D-Arg-NH2 with a Km of 52 μM was used at a concentration of 21.4 μM; for the Ki determination a 12.8 μM concentration has also been used. Substrate fluorescence was measured at an excitation and emission wavelength of λ=320 and 420 nm, respectively, on a spectrofluorimeter (Perkin Elmer, Model 650-40) equipped with a thermostated cell holder. Substrate hydrolysis was monitored for 10 min. immediately after adding the enzyme. All reactions were performed at least in triplicate. The Ki values—of the inhibitors were calculated from the intersection point of the straight lines obtained by the plots of vo/vi vs. [concentration of inhibitor], whereas IC50 values were calculated from plots of vi/vo [concentration of inhibitor] by non-linear regression with simple robust weighting.
50 mM Tris/HCl pH 7.6 (Tris=Tris-(hydroxymethyl)-aminomethan)
100 mM NaCl/10 mM CaCl 2/5% MeOH (ff necessary)
Enzyme: 8 nM catalytic domain (Met80-Gly242) of human neutrophil collagenase
Substrate: 10 microM DNP-Pro-Leu-Gly-Leu-Trp-Ala-D-Arg-NH2
A solution of the enzyme and inhibitor in assay buffer (25° C.) was prepared. The reaction was started directly by giving the substrate into the solution. The cleavage of the flourogenic substrate was followed by flourescence spectroscopy with an excitation and emision wavelength of 280 and 350 nm, respectively. The IC50 value was calculated as the inhibitor concentration, which is necessary to decrease the velocity of the reaction to the half in comparison to the reaction without inhibitor.

[1] abbreviates: MMP-8 (catalytic domain of human neutrophil collagenase), 25° C., read-out: IC-50.

Like-named read-outs stand apart in the source and are kept apart here.

T1 sequence (P22894 100-262 limits assumed): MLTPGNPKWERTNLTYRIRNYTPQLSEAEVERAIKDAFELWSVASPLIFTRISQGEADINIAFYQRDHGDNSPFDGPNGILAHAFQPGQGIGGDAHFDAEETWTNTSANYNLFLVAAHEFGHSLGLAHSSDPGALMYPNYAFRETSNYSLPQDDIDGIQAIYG

Consider `O=C1NC(=O)C(NC(=O)c2cccc3c2C(=O)c2ccccc2-3)(c2ccccc2)C(=O)N1` [example 32.74, 9-Oxo-9H-fluorene-1-carboxylic acid (2,4,6-trioxo-5-phenyl-hexadro-pyrimidin-5-yl)-amide], for which the IC50 under setting [1] was determined as 890 nM. As to “5-Decyl-5-[N-(2-hydroxyethyl)piperazinyl]barbituric Acid [example 28]”, under setting [1], the IC50 was determined as 320 nM. The compound `O=C1NC(=O)C(c2ccccc2)(N2CCN(c3ccc([N+](=O)[O-])cc3)CC2)C(=O)N1` [example 32.77, 5-[4-(4-Nitro-phenyl)-piperazin-1-yl)-5-phenyl-pyrimidine-2,4,6-trione] came in with an IC50 of 160 nM. In the case of “5-[N-(2-Hydroxyethyl)piperazinyl]-5-(4-hydroxyphenyl)barbituric Acid [example 20]”, the IC50 under setting [1] was 860 nM. `O=C1NC(=O)C(c2ccccc2)(N(Cc2ccccc2)C(=O)Cc2cccc(Br)c2)C(=O)N1` [preferred no. 120, N-Benzyl-2-(3-bromo-phenyl)-N-(2,4,6-trioxo-5-phenyl-hexahydro-pyrimidin-5-yl)-acetamide] yielded an IC50 of 150 nM.

As to “5-Octyl-5-[N-(2-hydroxyethyl)piperazinyl]barbituric Acid [example 23]”, the IC50 under setting [1] worked out at 110 nM. Turning to `CCCCCCCCC1(N2CCN(c3ccc([N+](=O)[O-])cc3)CC2)C(=O)NC(=O)NC1=O` [preferred no. 118], the IC50 under setting [1] came to 60 nM. As for `O=C1NC(=O)C(c2ccc(-c3ccccc3)cc2)(N2CCN(c3ccc([N+](=O)[O-])cc3)CC2)C(=O)N1` [example 26, 5-(4′-Biphenyl)-5-[N-(4-nitrophenyl)piperazinyl]barbituric Acid], under setting [1], the IC50 is 15 nM.

Values taken from patent US6472396B1, “Barbituric acid derivatives, processes for their production and pharmaceutical agents containing these compounds” (Roche Diagnostics GmbH, priority 1995, dated 2002).
